Patent US20160158375A1, “DIPEPTIDE LINKED MEDICINAL AGENTS” (Indiana University Research and Technology Corporation, priority 2010, published 2016)
Where two headings read alike, the source gives them in different places. Square brackets hold non-standard residues; d marks the D form. Peptide text beside a SMILES is read from it. Sar = CNCC(=O)O

Key:
[1] = plasma; for Relative peak area (%), HPLC peak a: peak a molecular weight 702; for Relative peak area (%), HPLC peak b: peak b molecular weight 902
[2] = Rate of model dipeptide cleavage in PBS (HPLC / LC-MS); conditions: for Relative peak area (%), HPLC peak a / Relative peak area (%), HPLC peak b: PBS, 37° C.; for Relative peak area (%), HPLC peak a: peak a molecular weight 702; for Relative peak area (%), HPLC peak b: peak b molecular weight 902
Experimental: The solution was incubated at 37° C. […] The dipeptide cleavage was quenched by lowering the pH with an equal volume of 0.1% TFA. The rate of cleavage was qualitatively monitored by LC-MS and quantitatively studied by HPLC. The retention time and relative peak area for the prodrug and the parent model peptide were quantified using Peak Simple Chromatography software.
The flow rate was 1 ml/min.
The concentrations of the prodrugs and the model parent peptide were determined by their respective peak areas, ‘a’ and ‘b’ for each of the different collection times (Table 1). […] The slope of this plot provides the rate constant 1′.

C[C@H](O)[C@@H](NC(=O)CNC(=O)[C@@H](CCCNC(=N)N)NC(=O)[C@H](NC(=O)[C@@H](Cc1c[nH]cn1)NC(=O)CN(C)C(=O)[C@@H](N)CCCCN)[C@H](C)O)C(=O)N[C@H](Cc1ccccc1)C(N)=O [peptide B, Lys-Sar-dHdTdRGdTdF-NH2] (H-K[Sar][dH][dT][dR]G[dT][dF]-NH2)
Relative peak area (%), HPLC peak a ([1]; 5 h): 17.0% | Relative peak area (%), HPLC peak b ([1]; 5 h): 83.0% | Relative peak area (%), HPLC peak a ([1]; 11 h): 29.2% | Relative peak area (%), HPLC peak b ([1]; 11 h): 70.8% | Relative peak area (%), HPLC peak a ([1]; 24 h): 60.2% | Relative peak area (%), HPLC peak b ([1]; 24 h): 39.8% | Relative peak area (%), HPLC peak a ([1]; 32 h): 54.0% | Relative peak area (%), HPLC peak b ([1]; 32 h): 46.0% | Relative peak area (%), HPLC peak a ([1]; 48 h): 27.6% | Relative peak area (%), HPLC peak b ([1]; 48 h): 72.4%

C[C@@H](O)[C@H](NC(=O)CNC(=O)[C@H](CCCNC(=N)N)NC(=O)[C@H](CO)NC(=O)[C@H](Cc1c[nH]cn1)NC(=O)CN(C)C(=O)[C@@H](N)CCCCN)C(=O)N[C@@H](Cc1ccccc1)C(N)=O [peptide A, Lys-Sar-HSRGTF-NH2] (H-K[Sar]HSRGTF-NH2; N-terminus assumed)
Relative peak area (%), HPLC peak a ([2]; 5 h): 26.5% | Relative peak area (%), HPLC peak b ([2]; 5 h): 73.5% | Relative peak area (%), HPLC peak a ([2]; 8 h): 28.9% | Relative peak area (%), HPLC peak b ([2]; 8 h): 71.1% | Relative peak area (%), HPLC peak a ([2]; 24 h): 28.8% | Relative peak area (%), HPLC peak b ([2]; 24 h): 71.2% | Relative peak area (%), HPLC peak a ([2]; 31 h): 77.7% | Relative peak area (%), HPLC peak b ([2]; 31 h): 22.3% | Relative peak area (%), HPLC peak a ([2]; 47 h): 90.0% | Relative peak area (%), HPLC peak b ([2]; 47 h): 10.0%

C[C@@H](O)[C@H](NC(=O)CNC(=O)[C@H](CCCNC(=N)N)NC(=O)[C@H](CO)NC(=O)[C@H](Cc1c[nH]cn1)NC(=O)CN(C)C(=O)C(C)(C)N)C(=O)N[C@@H](Cc1ccccc1)C(N)=O [Compound 24]
half-life at 1 mg/ml ([2]; buffer): 9 min
